Experimental data taken from patent US8231861B2, “Pancreatitis” (priority 2003, dated 2012).

Key:
[1] = tested on: wild type and TLR-4 knock out mice; assay: Arginine-induced acute pancreatitis in wild type and TLR-4 knock out mice; format: in vivo; conditions: for pancreatitis outcome (in words): arginine 800 mg/100 g i.p. in two halves, evaluated three days later; for MPO activity in pancreas: after arginine i.p., FIG. 10
Procedure: To evaluate the effect of the absence of TLR4 in another model of pancreatitis, a new mouse model was created. […] See, e.g., Tani et al., Dig. Dis. Sci. 35, 367-374 (1990). Briefly, pancreatitis was induced in wild type and TLR-4 knock out mice by injecting (i.p.) arginine at a dose of 800 mg/100 g body weight. This dose of arginine was divided in two parts, one half injected at the beginning of the experiment and the other half injected one hour later. Three days later mice were sacrificed and the parameters relating to the severity of pancreatitis were evaluated. Analysis was performed substantially as described above.

[2] = tested on: wild type and TLR4−/− transgenic mice; conditions: mouse, in vivo, ip
Procedure: Studies were performed on wild type and TLR4−/− transgenic mice weighing about 25-30 grams. Animals were housed in cages under standard conditions at room temperature with a twelve-hour light and dark cycle. Food and drinking water were available ad libitum. Secretagogue-induced pancreatitis was elicited by the hourly (twelve times) intraperitoneal injection of caerulein (50 μg/kg). […] One hour after the final caerulein or saline injection, animals were sacrificed by CO2 asphyxia, and tissue and blood samples were rapidly prepared for study. Harvested blood was allowed to clot and then centrifuged, and serum was obtained for measurement of amylase. […]
Tissue myeloperoxidase (MPO) activity was used as a marker for the sequestration of neutrophils within the pancreas by quantitating photometrically using 3,3′,5,5′-tetramethylbenzidine as a substrate. Pancreatic edema was quantitated by measuring tissue water content and expressing it as a percentage of tissue wet weight. Serum amylase activity was quantitated as described in Singh et al., J. Clin. Invest., 108:1387-1395 (2001). The extent of pancreatic acinar cell necrosis was quantitated morphometrically by an observer who was not aware of the sample identity. […] Ten randomly chosen microscopic fields (×125) were examined for each tissue sample, and the extent of acinar cell injury/necrosis was expressed as a percentage of total acinar tissue. […]

Molecule	pancreatitis outcome (in words) ([1]; TLR4 knock out mice)	MPO activity in pancreas ([1]; TLR4−/− mice)	reduction of serum amylase activity in TLR4−/− mice as compared to wild type mice ([1]; after administration of arginine i.p., FIG. 9)	pancreatitis outcome (in words) ([1]; normal (wild type) mice)	MPO activity in pancreas ([1]; wild type mice)	reduction of serum amylase activity in TLR4−/− mice as compared to wild type mice [2]
N=C(N)NCCC[C@H](N)C(=O)O [arginine]	significantly milder pancreatitis	6.8±6.2	more than 2.5 fold	pancreatitis that was more severe than that observed with caerulein administration	472±320	–
caerulein	–	–	–	–	–	more than 1.6 fold
